Assay results taken from US9012439B2, “Use of electrophilic compounds for inducing platelet production or maintaining platelet function” (University of Rochester, priority 2007, dated 2015).

How the values were obtained:
[1] = tested on: Meg-01 cells; test: Platelet production from Meg-01 cells (flow cytometry); assay type: cell-based, human; details: for effect of antioxidant pretreatment on 15d-PGJ2-induced platelet production / platelet production: Meg-01 cells; for effect of antioxidant pretreatment on 15d-PGJ2-induced platelet production: 5 mM GSH-EE or 1 mM NAC for 2 h, then 15d-PGJ2 24 h; for platelet production: 10 μM, 24 h
Description: Meg-01 and M07e cells were purchased from the American Type Culture Collection (Rockville, Md.) and Dami cells were a generous gift from Dr. Patricia J. Simpson-Haidaris (University of Rochester). All cells were cultured in RPMI-1640 tissue culture medium (Invitrogen) supplemented with 5% fetal bovine serum (FBS; Invitrogen), 10 mM HEPES (N-2-hydroxyethylpiperazine-N′-2-ethanesulfonic acid; Sigma), 2 mM L-glutamine (Invitrogen), 4.5 g/L glucose (Invitrogen), and 50 μg/mL gentamicin (Invitrogen). M07e cells were also supplemented with 100 ng/mL of granulocyte monocyte-colony stimulating factor (GM-CSF, R&D Systems). All treatments were performed in normal growth media. Dimethyl sulfoxide (DMSO) was used as a vehicle (control) in the experiments described below.
Platelets were isolated from megakaryocytes by centrifugation at 150 xg for 10 min. Supernatants underwent sequential centrifugation (500 xg for 10 min and 1000×g for 10 min). The remaining platelet pellet was fixed then permeabilized with a CD61 or CD41 antibody. 7-AAD (BD Pharmingen) was added for 10 min before analyzing the cells by flow cytometry. Platelets were identified using three well-described parameters (Patel et al., “The Biogenesis of Platelets from Megakaryocyte Proplatelets,” J Clin Invest 115:3348-3354 (2005); Breton-Gorius et al., “Expression of Platelet Proteins During the In Vitro and In Vivo Differentiation of Megakaryocytes and Morphological Aspects of Their Maturation,” Semin Hematol 23:43-67 (1986); Ogura et al., “Establishment of a Novel Human Megakaryoblastic Leukemia Cell Line, MEG-01, With Positive Philadelphia Chromosome,” Blood 66:1384-1392 (1985) and Franks et al., “A Fluorescence Microscopy Method for Quantifying Levels of Prostaglandin Endoperoxide H Synthase-1 and CD-41 in MEG-01 Cells,” Biol Proced Online 3:54-63 (2001), each of which is hereby incorporated by reference in its entirety), size (using normal human platelets as a control), presence of CD61 or CD41 and lack of DNA as determined by the absence of 7-AAD staining Ten thousand platelet events were collected and platelets were quantified by rate (platelet events/second) (Chung et al., “Platelet Activation in Acute, Decompensated Congestive Heart Failure,” Thromb Res 120:709-713 (2007), which is hereby incorporated by reference in its entirety.
A 19 by target sequence was selected to knock down PPARγ. PPARγ was cloned downstream of the RNA polymerase III U6 promoter and subcloned into a FG12 lentiviral vector which expresses green fluorescent protein (GFP) under the Ubiquitin C promoter. HEK 293 cells expressing this siRNA PPARγ had reduced PPARγ protein levels. To make the lentivirus, HEK 293 cells were co-transfected with 3 plasmids: the envelope vector (CMV-VSVG), the transfer vector (FG12-shRNAPPAR), and the packaging construct (pCMVΔ89.2 (gag/pol proteins)). Viral supernatants were collected every 8 h for 2 days and concentrated by ultracentrifugation at 50,000×g for 2 h at 4° C. using a Beckman SW 28 rotor. Viral titers were determined by infection of HeLa cells with serial dilutions of the viral stocks. Meg-01 cells were infected at a multiplicity of infection (MOI) of 20. After 48 h, approximately 56% of the PPARγ siRNA cells were transduced as determined by flow cytometry. The GFP positive (+) cells were then sorted by FACS and grown in RPMI with 5% FBS.

[2] = tested on: primary human megakaryocytes; test: Platelet production from human cord blood CD34+-derived megakaryocytes; assay type: cell-based; details: primary human megakaryocytes; 5 mM GSH-EE or 1 mM NAC for 2 h, then 15d-PGJ2 24 h
Description: Human CD34+ cord blood cells were obtained from the National Disease Research Interchange (NDRI, Philadelphia, Pa.). Cells were plated at 2.5×10^5 cells per well in a 12-well plate and cultured in serum-free medium as previously described (Zeuner et al., “Chemotherapy-induced Thrombocytopenia Derives from the Selective Death of Megakaryocyte Progenitors and Can Be Rescued by Stem Cell Factor,” Cancer Res 67:4767-4773 (2007), which is hereby incorporated by reference in its entirety) and supplemented with 100 ng/mL of rhTPO. After 14 days in culture, megakaryocytes were identified by staining with a CD61-FITC antibody and analyzed on a BD Biosciences FACSCalibur flow cytometer. Data were analyzed using FlowJo software (Treestar, Ashland, Oreg.). Cell images were captured using an inverted microscope (Olympus IX81). Platelets were isolated from megakaryocytes by centrifugation at 150 xg for 10 min. Supernatants underwent sequential centrifugation (500 xg for 10 min and 1000×g for 10 min). The remaining platelet pellet was fixed then permeabilized with a CD61 or CD41 antibody. 7-AAD (BD Pharmingen) was added for 10 min before analyzing the cells by flow cytometry. Platelets were identified using three well-described parameters (Patel et al., “The Biogenesis of Platelets from Megakaryocyte Proplatelets,” J Clin Invest 115:3348-3354 (2005); Breton-Gorius et al., “Expression of Platelet Proteins During the In Vitro and In Vivo Differentiation of Megakaryocytes and Morphological Aspects of Their Maturation,” Semin Hematol 23:43-67 (1986); Ogura et al., “Establishment of a Novel Human Megakaryoblastic Leukemia Cell Line, MEG-01, With Positive Philadelphia Chromosome,” Blood 66:1384-1392 (1985) and Franks et al., “A Fluorescence Microscopy Method for Quantifying Levels of Prostaglandin Endoperoxide H Synthase-1 and CD-41 in MEG-01 Cells,” Biol Proced Online 3:54-63 (2001), each of which is hereby incorporated by reference in its entirety), size (using normal human platelets as a control), presence of CD61 or CD41 and lack of DNA as determined by the absence of 7-AAD staining Ten thousand platelet events were collected and platelets were quantified by rate (platelet events/second) (Chung et al., “Platelet Activation in Acute, Decompensated Congestive Heart Failure,” Thromb Res 120:709-713 (2007), which is hereby incorporated by reference in its entirety.

[3] = tested on: primary human megakaryocytes; test: Reactive oxygen species production in primary human megakaryocytes; assay type: cell-based; details: pretreatment before 15d-PGJ2
Description: Human CD34+ cord blood cells were obtained from the National Disease Research Interchange (NDRI, Philadelphia, Pa.). Cells were plated at 2.5×10^5 cells per well in a 12-well plate and cultured in serum-free medium as previously described (Zeuner et al., “Chemotherapy-induced Thrombocytopenia Derives from the Selective Death of Megakaryocyte Progenitors and Can Be Rescued by Stem Cell Factor,” Cancer Res 67:4767-4773 (2007), which is hereby incorporated by reference in its entirety) and supplemented with 100 ng/mL of rhTPO. After 14 days in culture, megakaryocytes were identified by staining with a CD61-FITC antibody and analyzed on a BD Biosciences FACSCalibur flow cytometer. Data were analyzed using FlowJo software (Treestar, Ashland, Oreg.). Cell images were captured using an inverted microscope (Olympus IX81). Ten μM carboxy-H2DCFDA was added to cells for 20 min at RT. The cells were washed and immediately analyzed by flow cytometry. Five μM of MitoSOX Red dye in HBSS containing Mg^2+ and Ca^2+ was added to the cells for 15 min at 37° C. The cells were washed in HBSS and analyzed by flow cytometry.

[4] = tested on: Meg-01 cells; test: Reactive oxygen species production in Meg-01 cells (carboxy-H2DCFDA, MitoSOX Red); assay type: cell-based, human; details: for effect of antioxidant pretreatment on 15d-PGJ2 ROS induction: Meg-01 cells, pretreatment before 15d-PGJ2; for percentage of Meg-01 cells that produce mitochondrial superoxide (MitoSOX Red): 10 μM
Description: Ten μM carboxy-H2DCFDA was added to cells for 20 min at RT. The cells were washed and immediately analyzed by flow cytometry. Five μM of MitoSOX Red dye in HBSS containing Mg^2+ and Ca^2+ was added to the cells for 15 min at 37° C. The cells were washed in HBSS and analyzed by flow cytometry.

SMILES: CCOC(=O)CNC(=O)[C@H](CS)NC(=O)CC[C@H](N)C(=O)O [GSH-EE, glutathione reduced ethyl ester, reference compound]
- effect of antioxidant pretreatment on 15d-PGJ2-induced platelet production [1]: attenuate 15d-PGJ2-induced platelet production
- effect of antioxidant pretreatment on 15d-PGJ2-induced platelet production [2]: attenuate 15d-PGJ2-induced platelet production
- effect of antioxidant pretreatment on 15d-PGJ2 ROS induction [3]: attenuated both ROS induction and platelet formation
- effect of antioxidant pretreatment on 15d-PGJ2 ROS induction [4]: attenuated both ROS induction and platelet formation

SMILES: CCCCC[C@H](O)/C=C/[C@H]1[C@H](O)CC(=O)[C@@H]1C/C=C\CCCC(=O)O [PGE2]
- platelet production [1]: failed to enhance platelet production

SMILES: CCCCC[C@H](O)/C=C/[C@@H]1[C@H]2C/C(=C/CCCC(=O)O)O[C@H]2C[C@H]1O [PGI2]
- platelet production [1]: failed to enhance platelet production

SMILES: CCCCC[C@H](O)/C=C/[C@H]1C(=O)C=C[C@@H]1C/C=C\CCCC(=O)O [PGJ2]
- platelet production [1]: enhanced Meg-01 platelet production
- percentage of Meg-01 cells that produce mitochondrial superoxide (MitoSOX Red) ([4]; 1 h): 33%
- percentage of Meg-01 cells that produce mitochondrial superoxide (MitoSOX Red) ([4]; 6 h): 25%
- percentage of Meg-01 cells that express ROS (carboxy-H2DCFDA) ([4]; 1 h): 65%
- percentage of Meg-01 cells that express ROS (carboxy-H2DCFDA) ([4]; 6 h): 76%

SMILES: CC(=O)N[C@@H](CS)C(=O)O [NAC, N-acetylcysteine, reference compound]
- effect of antioxidant pretreatment on 15d-PGJ2-induced platelet production [1]: attenuate 15d-PGJ2-induced platelet production
- effect of antioxidant pretreatment on 15d-PGJ2-induced platelet production [2]: attenuate 15d-PGJ2-induced platelet production
- effect of antioxidant pretreatment on 15d-PGJ2 ROS induction [3]: attenuated both ROS induction and platelet formation
- effect of antioxidant pretreatment on 15d-PGJ2 ROS induction [4]: attenuated both ROS induction and platelet formation

SMILES: CCCCC[C@H](O)/C=C/[C@@H]1[C@@H](C/C=C\CCCC(=O)O)[C@@H](O)C[C@H]1O [PGF2α]
- platelet production [1]: failed to enhance platelet production

SMILES: O=C(Nc1ccccc1)c1cc([N+](=O)[O-])ccc1Cl [GW9662]
- blocking of 15d-PGJ2-enhanced platelet production ([1]; Meg-01 cells pre-treated 2 h with 100 nM GW9662, then 15d-PGJ2 24 h): not blocked
